The target in the assay is T1, Human PD-L1/PD-1 (Homo sapiens, UniProt Q9NZQ7).
T1 construct: TVMV protease cleavage site (C); made in house; host or cells: HEK293T cells
The assay is described as follows: HTRF Human PD-L1/PD-1 binding assay (PD-1-Ig/PD-L1-His). As to conditions: PD-L1-His 10 nM, PD-1-Ig 20 nM. An outline of the steps: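 Inhibitors were preincubated 15 min with human PD-L1(18-239)-His (10 nM final), then PD-1(25-167)-Ig (20 nM final) was added for 15 min in dPBS/0.1% BSA/0.05% Tween-20. Eu-cryptate anti-Ig (1 nM) and APC anti-His (20 nM) were added; 665/620 nm ratio read after 30 min.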
For orientation: TR-FRET usually uses a lanthanide donor and a delayed reading to cut background.

Setting [1] is: class symbol, read-out: HTRF Human PD-L1/PD-1 Binding Assay IC50 Range.

Read-outs that look alike come from different tables or passages of the source. Where a SMILES comes first, the peptide text is derived from it. Bridges are numbered along the chain shown (N, C = ends). [ ]: non-standard residue; d: D form. Phe(3,4,5-F3) = N[C@@H](Cc1cc(F)c(F)c(F)c1)C(=O)O; d(cisHyp) = O=C(O)[C@H]1C[C@@H](O)CN1; NMeF = CN[C@@H](Cc1ccccc1)C(=O)O; dHyp = O=C(O)[C@H]1C[C@H](O)CN1; NMeNle = CCCC[C@H](NC)C(=O)O; Orn = NCCC[C@H](N)C(=O)O; Dab = NCC[C@H](N)C(=O)O; Dap = NC[C@H](N)C(=O)O

Among the data in patent publication US10538555B2, “Macrocyclic inhibitors of the PD-1/PD-L1 and CD80(B7-1)/PD-L1 protein/protein interactions” (BRISTOL-MYERS SQUIBB COMPANY, priority 2014, dated 2020) are IC50 values, retold here.

T1 sequence (Q9NZQ7 with tags, fused parts or gaps): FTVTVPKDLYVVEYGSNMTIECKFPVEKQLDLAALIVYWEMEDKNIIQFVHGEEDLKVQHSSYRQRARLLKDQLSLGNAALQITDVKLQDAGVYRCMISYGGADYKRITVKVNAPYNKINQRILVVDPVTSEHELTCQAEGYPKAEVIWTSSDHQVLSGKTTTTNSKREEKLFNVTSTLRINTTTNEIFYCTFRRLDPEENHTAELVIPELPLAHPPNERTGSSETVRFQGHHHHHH

As to `CCCC[C@H]1C(=O)N2C[C@H](O)C[C@@H]2C(=O)N[C@@H](CC(=O)O)C(=O)N[C@@H](C(C)C)C(=O)N(C)[C@@H](Cc2ccccc2)C(=O)N[C@@H](CCC(N)=O)C(=O)N2C[C@H](O)C[C@@H]2C(=O)N[C@@H](Cc2c[nH]c3ccccc23)C(=O)N[C@@H](Cc2ccc(O)cc2)C(=O)N[C@@H](CCC(=O)O)C(=O)N[C@H](C(=O)NCC(N)=O)CSCC(=O)N[C@@H](Cc2cc(F)c(F)c(F)c2)C(=O)N(C)[C@@H](Cc2ccccc2)C(=O)N1C` [Example 9357] ({CH2CO}-[Phe(3,4,5-F3)][NMeF][NMeNle][d(cisHyp)]DV[NMeF]Q[d(cisHyp)]WYECG-NH2; thioether N-13), the IC50 under setting [1] was in the range of 10 to 99.9 nM.

Consider `CCCC[C@H]1C(=O)N2C[C@H](O)C[C@@H]2C(=O)N[C@@H](CC(=O)O)C(=O)N[C@@H](C(C)C)C(=O)N(C)[C@@H](Cc2ccccc2)C(=O)N[C@@H](CCC(N)=O)C(=O)N2C[C@H](O)C[C@@H]2C(=O)N[C@@H](Cc2c[nH]c3ccccc23)C(=O)N[C@@H](Cc2ccc(O)cc2)C(=O)N[C@@H](CC(=O)O)C(=O)N[C@H](C(=O)NCC(N)=O)CSCC(=O)N[C@@H](Cc2cc(F)c(F)c(F)c2)C(=O)N(C)[C@@H](Cc2ccccc2)C(=O)N1C` [Example 9358] ({CH2CO}-[Phe(3,4,5-F3)][NMeF][NMeNle][d(cisHyp)]DV[NMeF]Q[d(cisHyp)]WYDCG-NH2; thioether N-13), for which the IC50 under setting [1] is 10 to 99.9 nM.

`CCCC[C@H]1C(=O)N2C[C@H](O)C[C@@H]2C(=O)N[C@@H](CC(=O)O)C(=O)N[C@@H](C(C)C)C(=O)N(C)[C@@H](Cc2ccccc2)C(=O)N[C@@H](CCC(N)=O)C(=O)N2C[C@H](O)C[C@@H]2C(=O)N[C@@H](Cc2c[nH]c3ccccc23)C(=O)N[C@@H](Cc2ccc(O)cc2)C(=O)N[C@@H](CC(N)=O)C(=O)N[C@H](C(=O)NCC(N)=O)CSCC(=O)N[C@@H](Cc2cc(F)c(F)c(F)c2)C(=O)N(C)[C@@H](Cc2ccccc2)C(=O)N1C` [Example 9360] ({CH2CO}-[Phe(3,4,5-F3)][NMeF][NMeNle][d(cisHyp)]DV[NMeF]Q[d(cisHyp)]WYNCG-NH2; thioether N-13): the IC50 under setting [1] lay within 1 to 9.9 nM.

Regarding `CCCC[C@H]1C(=O)N2C[C@H](O)C[C@@H]2C(=O)N[C@@H](CC(=O)O)C(=O)N[C@@H](C(C)C)C(=O)N(C)[C@@H](Cc2ccccc2)C(=O)N[C@@H](CC(N)=O)C(=O)N2C[C@H](O)C[C@@H]2C(=O)N[C@@H](Cc2c[nH]c3ccccc23)C(=O)N[C@@H](Cc2ccc(O)cc2)C(=O)N[C@@H](CC(C)C)C(=O)N[C@H](C(=O)NCC(N)=O)CSCC(=O)N[C@@H](Cc2cc(F)c(F)c(F)c2)C(=O)N(C)[C@@H](Cc2ccccc2)C(=O)N1C` [Example 9361] ({CH2CO}-[Phe(3,4,5-F3)][NMeF][NMeNle][d(cisHyp)]DV[NMeF]N[d(cisHyp)]WYLCG-NH2; thioether N-13), under setting [1], the IC50 lay within 1 to 9.9 nM.

As for `CCCC[C@H]1C(=O)N2C[C@H](O)C[C@@H]2C(=O)N[C@@H](CC(=O)O)C(=O)N[C@@H](C(C)C)C(=O)N(C)[C@@H](Cc2ccccc2)C(=O)N[C@@H](CC(N)=O)C(=O)N2C[C@H](O)C[C@@H]2C(=O)N[C@@H](Cc2c[nH]c3ccccc23)C(=O)N[C@@H](Cc2ccc(O)cc2)C(=O)N[C@@H](CCCCN)C(=O)N[C@H](C(=O)NCC(N)=O)CSCC(=O)N[C@@H](Cc2cc(F)c(F)c(F)c2)C(=O)N(C)[C@@H](Cc2ccccc2)C(=O)N1C` [Example 9362] ({CH2CO}-[Phe(3,4,5-F3)][NMeF][NMeNle][d(cisHyp)]DV[NMeF]N[d(cisHyp)]WYKCG-NH2; thioether N-13), the IC50 under setting [1] is 1 to 9.9 nM.

Turning to `CCCC[C@H]1C(=O)N2C[C@H](O)C[C@@H]2C(=O)N[C@@H](CC(=O)O)C(=O)N[C@@H](C(C)C)C(=O)N(C)[C@@H](Cc2ccccc2)C(=O)N[C@@H](CC(N)=O)C(=O)N2C[C@H](O)C[C@@H]2C(=O)N[C@@H](Cc2c[nH]c3ccccc23)C(=O)N[C@@H](Cc2ccc(O)cc2)C(=O)N[C@@H](CCCN)C(=O)N[C@H](C(=O)NCC(N)=O)CSCC(=O)N[C@@H](Cc2cc(F)c(F)c(F)c2)C(=O)N(C)[C@@H](Cc2ccccc2)C(=O)N1C` [Example 9363] ({CH2CO}-[Phe(3,4,5-F3)][NMeF][NMeNle][d(cisHyp)]DV[NMeF]N[d(cisHyp)]WY[Orn]CG-NH2; thioether N-13), the IC50 under setting [1] lay in the range of 1 to 9.9 nM.

With `CCCC[C@H]1C(=O)N2C[C@H](O)C[C@@H]2C(=O)N[C@@H](CC(=O)O)C(=O)N[C@@H](C(C)C)C(=O)N(C)[C@@H](Cc2ccccc2)C(=O)N[C@@H](CC(N)=O)C(=O)N2C[C@H](O)C[C@@H]2C(=O)N[C@@H](Cc2c[nH]c3ccccc23)C(=O)N[C@@H](Cc2ccc(O)cc2)C(=O)N[C@@H](CCN)C(=O)N[C@H](C(=O)NCC(N)=O)CSCC(=O)N[C@@H](Cc2cc(F)c(F)c(F)c2)C(=O)N(C)[C@@H](Cc2ccccc2)C(=O)N1C` [Example 9364] ({CH2CO}-[Phe(3,4,5-F3)][NMeF][NMeNle][d(cisHyp)]DV[NMeF]N[d(cisHyp)]WY[Dab]CG-NH2; thioether N-13), the IC50 under setting [1] is 10 to 99.9 nM.

As to `CCCC[C@H]1C(=O)N2C[C@H](O)C[C@@H]2C(=O)N[C@@H](CC(=O)O)C(=O)N[C@@H](C(C)C)C(=O)N(C)[C@@H](Cc2ccccc2)C(=O)N[C@@H](CC(N)=O)C(=O)N2C[C@H](O)C[C@@H]2C(=O)N[C@@H](Cc2c[nH]c3ccccc23)C(=O)N[C@@H](Cc2ccc(O)cc2)C(=O)N[C@@H](CN)C(=O)N[C@H](C(=O)NCC(N)=O)CSCC(=O)N[C@@H](Cc2cc(F)c(F)c(F)c2)C(=O)N(C)[C@@H](Cc2ccccc2)C(=O)N1C` [Example 9365] ({CH2CO}-[Phe(3,4,5-F3)][NMeF][NMeNle][d(cisHyp)]DV[NMeF]N[d(cisHyp)]WY[Dap]CG-NH2; thioether N-13), the IC50 under setting [1] was in the range of 10 to 99.9 nM.

On to `CCCC[C@H]1C(=O)N2C[C@H](O)C[C@@H]2C(=O)N[C@@H](CC(=O)O)C(=O)N[C@@H](C(C)C)C(=O)N(C)[C@@H](Cc2ccccc2)C(=O)N[C@@H](CC(N)=O)C(=O)N2C[C@H](O)C[C@@H]2C(=O)N[C@@H](Cc2c[nH]c3ccccc23)C(=O)N[C@@H](Cc2ccc(O)cc2)C(=O)N[C@@H](CCC(=O)O)C(=O)N[C@H](C(=O)NCC(N)=O)CSCC(=O)N[C@@H](Cc2cc(F)c(F)c(F)c2)C(=O)N(C)[C@@H](Cc2ccccc2)C(=O)N1C` [Example 9366] ({CH2CO}-[Phe(3,4,5-F3)][NMeF][NMeNle][d(cisHyp)]DV[NMeF]N[d(cisHyp)]WYECG-NH2; thioether N-13), for which the IC50 under setting [1] lay within 10 to 99.9 nM.

Take `CCCC[C@H]1C(=O)N2C[C@H](O)C[C@@H]2C(=O)N[C@@H](CC(=O)O)C(=O)N[C@@H](C(C)C)C(=O)N(C)[C@@H](Cc2ccccc2)C(=O)N[C@@H](Cc2ccc(O)cc2)C(=O)N2C[C@H](O)C[C@@H]2C(=O)N[C@@H](Cc2c[nH]c3ccccc23)C(=O)N[C@@H](Cc2ccc(O)cc2)C(=O)N[C@@H](CC(C)C)C(=O)N[C@H](C(=O)NCC(N)=O)CSCC(=O)N[C@@H](Cc2cc(F)c(F)c(F)c2)C(=O)N(C)[C@@H](Cc2ccccc2)C(=O)N1C` [Example 9367] ({CH2CO}-[Phe(3,4,5-F3)][NMeF][NMeNle][d(cisHyp)]DV[NMeF]Y[d(cisHyp)]WYLCG-NH2; thioether N-13): the IC50 under setting [1] fell in the range of 10 to 99.9 nM.

On to `CCCC[C@H]1C(=O)N2C[C@@H](O)C[C@@H]2C(=O)N[C@@H](CC(=O)O)C(=O)N[C@@H](C(C)C)C(=O)N(C)[C@@H](Cc2ccccc2)C(=O)N[C@@H](Cc2ccc(O)cc2)C(=O)N2C[C@H](O)C[C@@H]2C(=O)N[C@@H](Cc2c[nH]c3ccccc23)C(=O)N[C@@H](Cc2ccc(O)cc2)C(=O)N[C@@H](CCCN)C(=O)N[C@H](C(=O)NCC(N)=O)CSCC(=O)N[C@@H](Cc2cc(F)c(F)c(F)c2)C(=O)N(C)[C@@H](Cc2ccccc2)C(=O)N1C` [Example 9368] ({CH2CO}-[Phe(3,4,5-F3)][NMeF][NMeNle][dHyp]DV[NMeF]Y[d(cisHyp)]WY[Orn]CG-NH2; thioether N-13), for which the IC50 under setting [1] is 1 to 9.9 nM.

On to `CCCC[C@H]1C(=O)N2C[C@@H](O)C[C@@H]2C(=O)N[C@@H](CC(=O)O)C(=O)N[C@@H](C(C)C)C(=O)N(C)[C@@H](Cc2ccccc2)C(=O)N[C@@H](CCC(=O)O)C(=O)N2C[C@H](O)C[C@@H]2C(=O)N[C@@H](Cc2c[nH]c3ccccc23)C(=O)N[C@@H](Cc2ccc(O)cc2)C(=O)N[C@@H](CC(C)C)C(=O)N[C@H](C(=O)NCC(N)=O)CSCC(=O)N[C@@H](Cc2cc(F)c(F)c(F)c2)C(=O)N(C)[C@@H](Cc2ccccc2)C(=O)N1C` [Example 9369] ({CH2CO}-[Phe(3,4,5-F3)][NMeF][NMeNle][dHyp]DV[NMeF]E[d(cisHyp)]WYLCG-NH2; thioether N-13), for which the IC50 under setting [1] was 1 to 9.9 nM.

Regarding `CCCC[C@H]1C(=O)N2C[C@@H](O)C[C@@H]2C(=O)N[C@@H](CC(=O)O)C(=O)N[C@@H](C(C)C)C(=O)N(C)[C@@H](Cc2ccccc2)C(=O)N[C@@H](CCC(=O)O)C(=O)N2C[C@H](O)C[C@@H]2C(=O)N[C@@H](Cc2c[nH]c3ccccc23)C(=O)N[C@@H](Cc2ccc(O)cc2)C(=O)N[C@@H](CCCN)C(=O)N[C@H](C(=O)NCC(N)=O)CSCC(=O)N[C@@H](Cc2cc(F)c(F)c(F)c2)C(=O)N(C)[C@@H](Cc2ccccc2)C(=O)N1C` [Example 9370] ({CH2CO}-[Phe(3,4,5-F3)][NMeF][NMeNle][dHyp]DV[NMeF]E[d(cisHyp)]WY[Orn]CG-NH2; thioether N-13), the IC50 (read-out: HTRF Human PD-L1/PD-1 Binding Assay IC50) came out at 5.7 nM.

As to `CCCC[C@H]1C(=O)N2C[C@H](O)C[C@@H]2C(=O)N[C@@H](CC(=O)O)C(=O)N[C@@H](C(C)C)C(=O)N(C)[C@@H](Cc2ccccc2)C(=O)N[C@@H](Cc2ccc(O)cc2)C(=O)N2C[C@@H](O)C[C@@H]2C(=O)N[C@@H](Cc2c[nH]c3ccccc23)C(=O)N[C@@H](Cc2ccc(O)cc2)C(=O)N[C@@H](CC(C)C)C(=O)N[C@H](C(=O)NCC(N)=O)CSCC(=O)N[C@@H](Cc2cc(F)c(F)c(F)c2)C(=O)N(C)[C@@H](Cc2ccccc2)C(=O)N1C` [Example 9371] ({CH2CO}-[Phe(3,4,5-F3)][NMeF][NMeNle][d(cisHyp)]DV[NMeF]Y[dHyp]WYLCG-NH2; thioether N-13), the IC50 under setting [1] lay in the range of 1 to 9.9 nM.
